# From PubChem BioAssay AID1963985 (Molecular Pharmacology Branch, DTP, NCI, 2024)
# Tested on: 252836-082-R-J2-PDC tumor spheroids, viability
# Assay: Anticancer human tumor 252836-082-R-J2-PDC patient-derived head and neck squamous cell carcinoma cell line growth inhibition [PI3K]
# Settings: spheroids with HUVEC and MSC; for IC50: curve of first compound; for viability, T/C: stronger effect = lower value
# Summary of the method: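 Targeted small molecules plus PI3K inhibitors, half-log dose series from Cmax (default top 10 microM), were applied to heterotypic spheroids of cancer cells with HUVEC and MSCs. Viability indicated growth inhibition.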
# [1] = second compound 0.0316 µM, first compound 0.0316 µM
# [2] = second compound 0.0316 µM, first compound 0.1 µM
# [3] = second compound 0.0316 µM, first compound 0.316 µM
# [4] = second compound 0.0316 µM, first compound 1 µM
# [5] = second compound 0.0316 µM, first compound 3.16 µM
# [6] = second compound 0.0316 µM, first compound 10 µM
# [7] = second compound 0.1 µM, first compound 0.0316 µM
# [8] = second compound 0.1 µM, first compound 0.1 µM
# [9] = second compound 0.1 µM, first compound 0.316 µM
# [10] = second compound 0.1 µM, first compound 1 µM
# [11] = second compound 0.1 µM, first compound 3.16 µM
# [12] = second compound 0.1 µM, first compound 10 µM
# [13] = second compound 0.316 µM, first compound 0.0316 µM
# [14] = second compound 0.316 µM, first compound 0.1 µM
# [15] = second compound 0.316 µM, first compound 0.316 µM
# [16] = second compound 0.316 µM, first compound 1 µM
# [17] = second compound 0.316 µM, first compound 3.16 µM
# [18] = second compound 0.316 µM, first compound 10 µM
# [19] = second compound 1 µM, first compound 0.0316 µM
# [20] = second compound 1 µM, first compound 0.1 µM
# [21] = second compound 1 µM, first compound 0.316 µM
# [22] = second compound 1 µM, first compound 1 µM
# [23] = second compound 1 µM, first compound 3.16 µM
# [24] = second compound 1 µM, first compound 10 µM
# [25] = second compound 3.16 µM, first compound 0.0316 µM
# [26] = second compound 3.16 µM, first compound 0.1 µM
# [27] = second compound 3.16 µM, first compound 0.316 µM
# [28] = second compound 3.16 µM, first compound 1 µM
# [29] = second compound 3.16 µM, first compound 3.16 µM
# [30] = second compound 3.16 µM, first compound 10 µM
# [31] = second compound 10 µM, first compound 0.0316 µM
# [32] = second compound 10 µM, first compound 0.1 µM
# [33] = second compound 10 µM, first compound 0.316 µM
# [34] = second compound 10 µM, first compound 1 µM
# [35] = second compound 10 µM, first compound 3.16 µM
# [36] = second compound 10 µM, first compound 10 µM
# 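Further: spheroids exposed to agents for seven days before readout.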
# 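Wherever viability, T/C is given: percent of vehicle DMSO control viability so 100% = untreated growth.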
compound,measurement,setting,value
C#Cc1c(F)ccc2cc(O)cc(-c3ncc4c(N5CC6CCC(C5)N6)nc(OCC56CCCN5CC(F)C6)nc4c3F)c12 (stereo unspecified) + Cc1nc(NC(=O)N2CCCC2C(N)=O)sc1-c1ccnc(C(C)(C)C(F)(F)F)c1,IC50,second compound 0.0316 µM,> 10000 nM
same,IC50,second compound 0.1 µM,> 10000 nM
same,IC50,second compound 0.316 µM,> 10000 nM
same,IC50,second compound 1 µM,4450 nM
same,IC50,second compound 3.16 µM,< 31.6 nM
same,IC50,second compound 10 µM,< 31.6 nM
same,"viability, T/C",[1],96.4%
same,"viability, T/C",[2],82.3%
same,"viability, T/C",[3],98.8%
same,"viability, T/C",[4],76.5%
same,"viability, T/C",[5],72.2%
same,"viability, T/C",[6],69.2%
same,"viability, T/C",[7],92.4%
same,"viability, T/C",[8],78.4%
same,"viability, T/C",[9],76.9%
same,"viability, T/C",[10],78%
same,"viability, T/C",[11],63.6%
same,"viability, T/C",[12],67.4%
same,"viability, T/C",[13],70.2%
same,"viability, T/C",[14],64.7%
same,"viability, T/C",[15],71.1%
same,"viability, T/C",[16],58.4%
same,"viability, T/C",[17],60.8%
same,"viability, T/C",[18],53.5%
same,"viability, T/C",[19],54.4%
same,"viability, T/C",[20],54.9%
same,"viability, T/C",[21],53.9%
same,"viability, T/C",[22],60.4%
same,"viability, T/C",[23],54.9%
same,"viability, T/C",[24],37.7%
same,"viability, T/C",[25],41.9%
same,"viability, T/C",[26],40.6%
same,"viability, T/C",[27],44.5%
same,"viability, T/C",[28],40.9%
same,"viability, T/C",[29],39.7%
same,"viability, T/C",[30],22%
same,"viability, T/C",[31],36.3%
same,"viability, T/C",[32],35.2%
same,"viability, T/C",[33],31.5%
same,"viability, T/C",[34],25%
same,"viability, T/C",[35],25.7%
same,"viability, T/C",[36],9.29%
CC(Cn1ccc(-c2ccc(C#N)c(Cl)c2)n1)NC(=O)c1cc(C(C)O)[nH]n1 (stereo unspecified) + Cc1nc(NC(=O)N2CCCC2C(N)=O)sc1-c1ccnc(C(C)(C)C(F)(F)F)c1,IC50,second compound 0.0316 µM,> 10000 nM
same,IC50,second compound 0.1 µM,> 10000 nM
same,IC50,second compound 0.316 µM,> 10000 nM
same,IC50,second compound 1 µM,> 10000 nM
same,IC50,second compound 3.16 µM,< 31.6 nM
same,IC50,second compound 10 µM,< 31.6 nM
same,"viability, T/C",[1],76.5%
same,"viability, T/C",[2],75.4%
same,"viability, T/C",[3],96%
same,"viability, T/C",[4],85.9%
same,"viability, T/C",[5],94.3%
same,"viability, T/C",[6],71.5%
same,"viability, T/C",[7],99.7%
same,"viability, T/C",[8],85.1%
same,"viability, T/C",[9],80.8%
same,"viability, T/C",[10],85%
same,"viability, T/C",[11],86.2%
same,"viability, T/C",[12],81.5%
same,"viability, T/C",[13],65.4%
same,"viability, T/C",[14],70.9%
same,"viability, T/C",[15],72.6%
same,"viability, T/C",[16],74.5%
same,"viability, T/C",[17],100%
same,"viability, T/C",[18],64.7%
same,"viability, T/C",[19],53.4%
same,"viability, T/C",[20],58.3%
same,"viability, T/C",[21],55.5%
same,"viability, T/C",[22],60.8%
same,"viability, T/C",[23],54.7%
same,"viability, T/C",[24],53%
same,"viability, T/C",[25],46.5%
same,"viability, T/C",[26],48.2%
same,"viability, T/C",[27],44.5%
same,"viability, T/C",[28],55.3%
same,"viability, T/C",[29],40.8%
same,"viability, T/C",[30],42.9%
same,"viability, T/C",[31],34%
same,"viability, T/C",[32],37.3%
same,"viability, T/C",[33],39.2%
same,"viability, T/C",[34],37.3%
same,"viability, T/C",[35],34.2%
same,"viability, T/C",[36],31.1%
CC1(C)CCC(Nc2ncc(C(F)(F)F)c(-c3c[nH]c4c(P(C)(C)=O)c(C#N)ccc34)n2)CN1 (stereo unspecified) + Cc1nc(NC(=O)N2CCCC2C(N)=O)sc1-c1ccnc(C(C)(C)C(F)(F)F)c1,IC50,second compound 0.0316 µM,< 31.6 nM
same,IC50,second compound 0.1 µM,< 31.6 nM
same,IC50,second compound 0.316 µM,< 31.6 nM
same,IC50,second compound 1 µM,< 31.6 nM
same,IC50,second compound 3.16 µM,< 31.6 nM
same,IC50,second compound 10 µM,< 31.6 nM
same,"viability, T/C",[1],39.2%
same,"viability, T/C",[2],27.6%
same,"viability, T/C",[3],33.3%
same,"viability, T/C",[4],30.5%
same,"viability, T/C",[5],38.8%
same,"viability, T/C",[6],6.62%
same,"viability, T/C",[7],36.2%
same,"viability, T/C",[8],33.4%
same,"viability, T/C",[9],32.2%
same,"viability, T/C",[10],30.9%
same,"viability, T/C",[11],38.4%
same,"viability, T/C",[12],7.19%
same,"viability, T/C",[13],28.8%
same,"viability, T/C",[14],27.6%
same,"viability, T/C",[15],28.4%
same,"viability, T/C",[16],27.2%
same,"viability, T/C",[17],32.8%
same,"viability, T/C",[18],6.05%
same,"viability, T/C",[19],27.4%
same,"viability, T/C",[20],26.9%
same,"viability, T/C",[21],28.2%
same,"viability, T/C",[22],25.9%
same,"viability, T/C",[23],23.1%
same,"viability, T/C",[24],3.48%
same,"viability, T/C",[25],23.1%
same,"viability, T/C",[26],21.1%
same,"viability, T/C",[27],22.7%
same,"viability, T/C",[28],24%
same,"viability, T/C",[29],20.9%
same,"viability, T/C",[30],2.65%
same,"viability, T/C",[31],15.8%
same,"viability, T/C",[32],18.1%
same,"viability, T/C",[33],19.4%
same,"viability, T/C",[34],17.7%
same,"viability, T/C",[35],12.7%
same,"viability, T/C",[36],1.03%
